{"source": "patent US7595053B2", "about": "(priority 2001, dated 2009)", "key": {"Mab Hs-1": {"test_system": "Mab Hs-1", "assay_type": "binding"}, "MAb Hs-2": {"test_system": "MAb Hs-2", "assay_type": "binding"}, "MAb Hs-3": {"test_system": "MAb Hs-3", "assay_type": "binding"}, "[1]": {"test_system": "Japanese encephalitis virus", "assay_type": "cell-based, Porcine stable kidney cells; sera from mice"}, "[2]": {"test_system": "Japanese encephalitis virus", "assay_type": "in vivo, mice (C3H, BALB/c, SWISS)", "conditions": "observed 21 days"}, "[3]": {"test_system": "Japanese encephalitis virus", "assay_type": "in vivo, mice (BALB/C, C3H, SWISS/Albino)", "conditions": "50 ug peptide per mouse per dose sc with Freund's adjuvant every 14 days; FIGS. 3A-3C"}, "[4]": {"test_system": "Japanese encephalitis virus", "assay_type": "in vivo, BALB/c mice", "conditions": "40 ug conjugate per mouse per dose with Freund's adjuvant"}, "[5]": {"conditions": "other strains of mice (BALB/c or SWISS)"}}, "note": "Like-named read-outs stand apart in the source and are kept apart here.", "data": [{"substance": "AIVVEYSS [269-AIVVEYSS-276]", "values": [{"measurement": "Reaction with Mab Hs-1 (in words)", "setting": "Mab Hs-1", "value": "react with Mab Hs-1"}, {"measurement": "Reactivity with monoclonal antibody Hs-1, OD values at 492 nm", "setting": "Mab Hs-1", "value": 0.696}, {"measurement": "Reactivity with monoclonal antibody Hs-2, OD values at 492 nm", "setting": "MAb Hs-2", "value": 0.041}, {"measurement": "Reactivity with monoclonal antibody Hs-3, OD values at 492 nm", "setting": "MAb Hs-3", "value": 0.115}]}, {"substance": "ANDKPTLD [35-ANDKPTLD-42]", "values": [{"measurement": "Reactivity with monoclonal antibody Hs-1, OD values at 492 nm", "setting": "Mab Hs-1", "value": 0.022}, {"measurement": "Reactivity with monoclonal antibody Hs-2, OD values at 492 nm", "setting": "MAb Hs-2", "value": 0.016}, {"measurement": "Reactivity with monoclonal antibody Hs-3, OD values at 492 nm", "setting": "MAb Hs-3", "value": 0.052}]}, {"substance": "DKPTLDVR [37-DKPTLDVR-44]", "values": [{"measurement": "Reactivity with monoclonal antibody Hs-1, OD values at 492 nm", "setting": "Mab Hs-1", "value": 0.029}, {"measurement": "Reactivity with monoclonal antibody Hs-2, OD values at 492 nm", "setting": "MAb Hs-2", "value": 0.016}, {"measurement": "Reactivity with monoclonal antibody Hs-3, OD values at 492 nm", "setting": "MAb Hs-3", "value": 0.035}]}, {"substance": "DVRMINIE [42-DVRMINIE-49]", "values": [{"measurement": "Reactivity with monoclonal antibody Hs-1, OD values at 492 nm", "setting": "Mab Hs-1", "value": 0.155}, {"measurement": "Reactivity with monoclonal antibody Hs-2, OD values at 492 nm", "setting": "MAb Hs-2", "value": 0.008}, {"measurement": "Reactivity with monoclonal antibody Hs-3, OD values at 492 nm", "setting": "MAb Hs-3", "value": 0.043}]}, {"substance": "EYSSSVKL [273-EYSSSVKL-280]", "values": [{"measurement": "Reactivity with monoclonal antibody Hs-1, OD values at 492 nm", "setting": "Mab Hs-1", "value": 0.538}, {"measurement": "Reactivity with monoclonal antibody Hs-2, OD values at 492 nm", "setting": "MAb Hs-2", "value": 0.045}, {"measurement": "Reactivity with monoclonal antibody Hs-3, OD values at 492 nm", "setting": "MAb Hs-3", "value": 0.110}]}, {"substance": "H-SENHGNYSAQVGASQGSIGGVFNSIGKAVHQVFG-OH [chimeric peptide]", "values": [{"measurement": "Neutralization of Japanese encephalitis virus by anti-peptide sera", "setting": "[1]; [5]", "value": "not able to neutralize the virus"}, {"measurement": "Neutralization of Japanese encephalitis virus by anti-peptide sera", "setting": "[1]; sera from C3H mice, diluted 1:50, plaque reduction, FIG. 4", "value": "capable of neutralizing Japanese encephalitis virus"}, {"measurement": "Resistance to lethal virus challenge (survival)", "setting": "[2]; C3H mice, challenge virus dose 2.3 log LD 50 i.p. followed by 1% starch i.c., FIG. 5", "value": "able to resist the virus challenge"}, {"measurement": "Resistance to lethal virus challenge (survival)", "setting": "[2]; [5]", "value": "nor were they able to resist the virus challenge"}, {"measurement": "Anti Japanese encephalitis virus response by ELISA (in words)", "setting": "[3]", "value": "capable of eliciting an immune response against JE virus"}]}, {"substance": "IMANDKPT [33-IMANDKPT-40]", "values": [{"measurement": "Reactivity with monoclonal antibody Hs-1, OD values at 492 nm", "setting": "Mab Hs-1", "value": 0.110}, {"measurement": "Reactivity with monoclonal antibody Hs-2, OD values at 492 nm", "setting": "MAb Hs-2", "value": 0.016}, {"measurement": "Reactivity with monoclonal antibody Hs-3, OD values at 492 nm", "setting": "MAb Hs-3", "value": 0.017}]}, {"substance": "IVVEYSSS [270-IVVEYSSS-277]", "values": [{"measurement": "Reactivity with monoclonal antibody Hs-1, OD values at 492 nm", "setting": "Mab Hs-1", "value": 0.637}, {"measurement": "Reactivity with monoclonal antibody Hs-2, OD values at 492 nm", "setting": "MAb Hs-2", "value": 0.030}, {"measurement": "Reactivity with monoclonal antibody Hs-3, OD values at 492 nm", "setting": "MAb Hs-3", "value": 0.112}]}, {"substance": "LDVRMINI [41-LDVRMINI-48]", "values": [{"measurement": "Reactivity with monoclonal antibody Hs-1, OD values at 492 nm", "setting": "Mab Hs-1", "value": 0.277}, {"measurement": "Reactivity with monoclonal antibody Hs-2, OD values at 492 nm", "setting": "MAb Hs-2", "value": 0.007}, {"measurement": "Reactivity with monoclonal antibody Hs-3, OD values at 492 nm", "setting": "MAb Hs-3", "value": 0.082}]}, {"substance": "MINIEASQ [45-MINIEASQ-52]", "values": [{"measurement": "Reactivity with monoclonal antibody Hs-1, OD values at 492 nm", "setting": "Mab Hs-1", "value": 0.177}, {"measurement": "Reactivity with monoclonal antibody Hs-2, OD values at 492 nm", "setting": "MAb Hs-2", "value": 0.001}, {"measurement": "Reactivity with monoclonal antibody Hs-3, OD values at 492 nm", "setting": "MAb Hs-3", "value": 0.080}]}, {"substance": "NHGNYSAQVGASQ [151-NHGNYSAQVGASQ-163]", "values": [{"measurement": "Reactivity with monoclonal antibody Hs-1, OD values at 492 nm", "setting": "Mab Hs-1", "value": 0.074}, {"measurement": "Reactivity with monoclonal antibody Hs-2, OD values at 492 nm", "setting": "MAb Hs-2", "value": 0.294}, {"measurement": "Reactivity with monoclonal antibody Hs-3, OD values at 492 nm", "setting": "MAb Hs-3", "value": 0.258}]}, {"substance": "NIEASQLA [47-NIEASQLA-54]", "values": [{"measurement": "Reactivity with monoclonal antibody Hs-1, OD values at 492 nm", "setting": "Mab Hs-1", "value": 0.07}, {"measurement": "Reactivity with monoclonal antibody Hs-2, OD values at 492 nm", "setting": "MAb Hs-2", "value": 0.003}, {"measurement": "Reactivity with monoclonal antibody Hs-3, OD values at 492 nm", "setting": "MAb Hs-3", "value": 0.081}]}, {"substance": "Ovalbumin", "values": [{"measurement": "Reactivity of anti peptide sera with Japanese encephalitis virus by ELISA, mean optical density", "setting": "[4]; sera collected on post inoculation day 7", "value": "0.127 ± 0.022"}, {"measurement": "Reactivity of anti peptide sera with Japanese encephalitis virus by ELISA, mean optical density", "setting": "[4]; sera collected on post inoculation day 14", "value": "0.116 ± 0.072"}, {"measurement": "Reactivity of anti peptide sera with Japanese encephalitis virus by ELISA, mean optical density", "setting": "[4]; sera collected on post inoculation day 21", "value": "0.153 ± 0.003"}]}, {"substance": "PTLDVRMI [39-PTLDVRMI-46]", "values": [{"measurement": "Reaction with Mab Hs-1 (in words)", "setting": "Mab Hs-1", "value": "react with Mab Hs-1"}, {"measurement": "Reactivity with monoclonal antibody Hs-1, OD values at 492 nm", "setting": "Mab Hs-1", "value": 0.313}, {"measurement": "Reactivity with monoclonal antibody Hs-2, OD values at 492 nm", "setting": "MAb Hs-2", "value": 0.006}, {"measurement": "Reactivity with monoclonal antibody Hs-3, OD values at 492 nm", "setting": "MAb Hs-3", "value": 0.025}]}, {"substance": "SENHGNYSAQVGASQ [149-SENHGNYSAQVGASQ-163]", "values": [{"measurement": "Reactivity with monoclonal antibody Hs-1, OD values at 492 nm", "setting": "Mab Hs-1", "value": 0.093}, {"measurement": "Reactivity with monoclonal antibody Hs-2, OD values at 492 nm", "setting": "MAb Hs-2", "value": 0.415}, {"measurement": "Reactivity with monoclonal antibody Hs-3, OD values at 492 nm", "setting": "MAb Hs-3", "value": 0.377}, {"measurement": "Anti Japanese encephalitis virus response by ELISA (in words)", "setting": "[3]", "value": "capable of eliciting an immune response against JE virus"}]}, {"substance": "SSSVKLTS [275-SSSVKLTS-282]", "values": [{"measurement": "Reactivity with monoclonal antibody Hs-1, OD values at 492 nm", "setting": "Mab Hs-1", "value": 0.765}, {"measurement": "Reactivity with monoclonal antibody Hs-2, OD values at 492 nm", "setting": "MAb Hs-2", "value": 0.053}, {"measurement": "Reactivity with monoclonal antibody Hs-3, OD values at 492 nm", "setting": "MAb Hs-3", "value": 0.136}]}, {"substance": "SSVKLTSG [276-SSVKLTSG-283]", "values": [{"measurement": "Reactivity with monoclonal antibody Hs-1, OD values at 492 nm", "setting": "Mab Hs-1", "value": 0.447}, {"measurement": "Reactivity with monoclonal antibody Hs-2, OD values at 492 nm", "setting": "MAb Hs-2", "value": 0.061}, {"measurement": "Reactivity with monoclonal antibody Hs-3, OD values at 492 nm", "setting": "MAb Hs-3", "value": 0.123}]}, {"substance": "TLDVRMIN [40-TLDVRMIN-47]", "values": [{"measurement": "Reactivity with monoclonal antibody Hs-1, OD values at 492 nm", "setting": "Mab Hs-1", "value": 0.329}, {"measurement": "Reactivity with monoclonal antibody Hs-2, OD values at 492 nm", "setting": "MAb Hs-2", "value": 0.008}, {"measurement": "Reactivity with monoclonal antibody Hs-3, OD values at 492 nm", "setting": "MAb Hs-3", "value": 0.064}]}, {"substance": "VEYSSSVK [272-VEYSSSVK-279]", "values": [{"measurement": "Reactivity with monoclonal antibody Hs-1, OD values at 492 nm", "setting": "Mab Hs-1", "value": 0.290}, {"measurement": "Reactivity with monoclonal antibody Hs-2, OD values at 492 nm", "setting": "MAb Hs-2", "value": 0.040}, {"measurement": "Reactivity with monoclonal antibody Hs-3, OD values at 492 nm", "setting": "MAb Hs-3", "value": 0.106}]}, {"substance": "VRMINIEA [43-VRMINIEA-50]", "values": [{"measurement": "Reactivity with monoclonal antibody Hs-1, OD values at 492 nm", "setting": "Mab Hs-1", "value": 0.338}, {"measurement": "Reactivity with monoclonal antibody Hs-2, OD values at 492 nm", "setting": "MAb Hs-2", "value": 0.012}, {"measurement": "Reactivity with monoclonal antibody Hs-3, OD values at 492 nm", "setting": "MAb Hs-3", "value": 0.133}]}, {"substance": "VVEYSSSV [271-VVEYSSSV-278]", "values": [{"measurement": "Reactivity with monoclonal antibody Hs-1, OD values at 492 nm", "setting": "Mab Hs-1", "value": 0.659}, {"measurement": "Reactivity with monoclonal antibody Hs-2, OD values at 492 nm", "setting": "MAb Hs-2", "value": 0.029}, {"measurement": "Reactivity with monoclonal antibody Hs-3, OD values at 492 nm", "setting": "MAb Hs-3", "value": 0.090}]}, {"substance": "YSAQVGASQ [155-YSAQVGASQ-163]", "values": [{"measurement": "Reactivity with monoclonal antibody Hs-1, OD values at 492 nm", "setting": "Mab Hs-1", "value": 0.118}, {"measurement": "Reactivity with monoclonal antibody Hs-2, OD values at 492 nm", "setting": "MAb Hs-2", "value": 0.492}, {"measurement": "Reactivity with monoclonal antibody Hs-3, OD values at 492 nm", "setting": "MAb Hs-3", "value": 0.334}]}, {"substance": "YSAQVGASQAAKF [155-YSAQVGASQAAKF-167]", "values": [{"measurement": "Reactivity with monoclonal antibody Hs-1, OD values at 492 nm", "setting": "Mab Hs-1", "value": 0.106}, {"measurement": "Reactivity with monoclonal antibody Hs-2, OD values at 492 nm", "setting": "MAb Hs-2", "value": 0.501}, {"measurement": "Reactivity with monoclonal antibody Hs-3, OD values at 492 nm", "setting": "MAb Hs-3", "value": 0.377}]}, {"substance": "YSSSVKLT [274-YSSSVKLT-281]", "values": [{"measurement": "Reactivity with monoclonal antibody Hs-1, OD values at 492 nm", "setting": "Mab Hs-1", "value": 0.616}, {"measurement": "Reactivity with monoclonal antibody Hs-2, OD values at 492 nm", "setting": "MAb Hs-2", "value": 0.054}, {"measurement": "Reactivity with monoclonal antibody Hs-3, OD values at 492 nm", "setting": "MAb Hs-3", "value": 0.153}]}]}
